This experiment has as its target T1, sGC α1/β1 heterodimer (Homo sapiens, UniProt Q02108+Q02153).
T1 construct: expressed in transfected cells; host or cells: CHO-K1 (clone #7, CHO-K1/sGC)
T1 sequence (Q02108 1-690): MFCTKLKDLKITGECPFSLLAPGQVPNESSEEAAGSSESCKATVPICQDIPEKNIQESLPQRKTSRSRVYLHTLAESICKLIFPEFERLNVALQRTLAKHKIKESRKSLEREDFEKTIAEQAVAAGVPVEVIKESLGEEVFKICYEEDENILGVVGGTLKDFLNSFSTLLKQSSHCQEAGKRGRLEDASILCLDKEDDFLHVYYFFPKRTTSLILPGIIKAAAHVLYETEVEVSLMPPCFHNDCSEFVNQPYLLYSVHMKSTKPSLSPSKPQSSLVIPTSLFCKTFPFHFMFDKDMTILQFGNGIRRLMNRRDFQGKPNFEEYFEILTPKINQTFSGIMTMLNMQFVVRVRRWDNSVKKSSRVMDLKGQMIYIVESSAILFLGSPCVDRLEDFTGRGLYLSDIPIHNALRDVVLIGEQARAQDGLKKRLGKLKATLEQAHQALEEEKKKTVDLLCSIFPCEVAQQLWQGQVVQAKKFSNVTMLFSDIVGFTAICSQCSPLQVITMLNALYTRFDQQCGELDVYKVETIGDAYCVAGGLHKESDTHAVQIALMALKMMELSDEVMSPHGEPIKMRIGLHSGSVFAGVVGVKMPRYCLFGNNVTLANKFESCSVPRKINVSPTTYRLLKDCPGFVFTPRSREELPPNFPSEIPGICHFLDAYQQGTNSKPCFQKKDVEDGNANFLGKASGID
T1 sequence (Q02153 1-619): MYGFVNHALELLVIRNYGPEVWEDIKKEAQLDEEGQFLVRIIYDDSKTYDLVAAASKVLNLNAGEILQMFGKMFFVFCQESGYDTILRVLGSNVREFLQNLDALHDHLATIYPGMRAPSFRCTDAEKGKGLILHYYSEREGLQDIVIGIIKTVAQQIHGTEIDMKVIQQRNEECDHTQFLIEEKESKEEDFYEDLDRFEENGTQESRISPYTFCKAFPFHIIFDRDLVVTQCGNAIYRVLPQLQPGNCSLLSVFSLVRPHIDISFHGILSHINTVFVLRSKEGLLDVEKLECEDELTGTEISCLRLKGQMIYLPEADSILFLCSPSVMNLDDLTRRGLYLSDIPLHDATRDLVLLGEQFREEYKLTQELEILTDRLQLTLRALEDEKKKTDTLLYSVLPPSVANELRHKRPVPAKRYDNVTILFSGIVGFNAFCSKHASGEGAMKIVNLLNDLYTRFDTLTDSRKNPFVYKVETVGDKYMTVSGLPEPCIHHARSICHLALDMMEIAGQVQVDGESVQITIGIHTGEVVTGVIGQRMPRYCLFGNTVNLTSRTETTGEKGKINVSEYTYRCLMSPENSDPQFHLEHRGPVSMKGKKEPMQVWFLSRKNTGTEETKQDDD
The experiment is described as follows: Cell-based sGC functional assay (CASA assay): cGMP generation in CHO-K1/sGC cells, HTRF detection. As to conditions: for EC50: inflection point (IP) of cGMP generation in CHO-K1/sGC cells, 4P fit, activity expressed as percentage of Compound A; for % Act.: percent activation relative to standard Compound A in CHO-K1/sGC cells; for Emax: CHO-K1, percent activation relative to standard Compound A in CHO-K1/sGC cells, read-out: % Act. An excerpt:
Biological Assay 1: Cell-Based sGC Functional Assay (CASA Assay)
sGC is a heme-containing enzyme that converts GTP to secondary messenger cGMP. Increases in cGMP levels affect several physiological processes including vasorelaxation through multiple downstream pathways. […] Heme-dependent activators (HDAs) preferentially activate sGC containing a ferrous heme group. To determine the effect of sGC activators on enzyme activity, the CASA assay was developed to monitor the generation of cGMP in a cell line that stably expresses the heterodimeric sGC protein.
A CHO-K1 cell line stably expressing the sGC α1/β1 heterodimer was generated using a standard transfection protocol. CHO-K1 cells were transfected with plasmids pIREShyghsGCal and pIRESneo-hsGCβ1 simultaneously using FUGENE reagent. Clones that stably express both subunits were selected with hygromycin and neomycin for 2 weeks. Clone #7 was chosen for the assay and was designated CHO-K1/sGC. CHO-K1/sGC cells were maintained in F-K12 medium containing 10% heat-inactivated Fetal Bovine Serum (FBS), 100 μg/mL penicillin/streptomycin, 0.5 mg/mL hygromycin and 0.25 mg/mL G418. The cells were then cryopreserved in LN2. On the day of the assay, cells thawed and resuspended in EBSS Assay Buffer (Sigma, E3024) supplemented with 5 mM MgCl2, 10 mM HEPES (4-(2-hydroxyethyl)piperazine-1-ethanesulfonic acid) and 0.05% BSA (bovine serum albumin) (EAB) and cell density was then adjusted to 4×10^5/mL with EAR IBMX (3-isobutyl-1-methylxanthin, 0.5 mM) was added to inhibit degradation of cGMP. Compounds were diluted from DMSO stock solutions and added to the assay at a final DMSO concentration of 2.5%. Cells were incubated with compounds in the presence and absence of 1 μM of Diethylenetriamine/nitric oxide adduct (DETA-NO; Sigma, 17018) for 1 hr at 37° C. At the end of the incubation period, the reaction was terminated and the cells were lysed with the detection reagents from Cisbio Kits. The level of intracellular cGMP was determined using an HTRF-based assay kit (CisBio, 62GM2PEC), which detects the displacement of a fluorescence labeled cGMP from its specific antibody. The cGMP produced by test compounds was directly compared to the maximum cGMP production (this value was set to equal 100% activation.) of the published sGC-HDA Compound A:
[drawing 597] (Example 1 in WO 2010/065275, published Jun. 10, 2010). The test compounds' activities were then expressed as a percentage of Compound A, the standard in every experiment. This percent activation was calculated either in the presence or absence of DETA-NO which was then plotted. IP and maximum fold induction was derived using ADA analysis software for 4P fit.
The compounds in the Examples of the instant invention had inflection points (IP) less than or equal to 10 μM and more particularly less than or equal to about 1 μM.

One may read the EC50 as the concentration giving half of the maximal effect. Higher therefore signals a less potent agent. As for `CC1(c2ccc(F)cc2)C(=O)Nc2nc(-c3cn4ccnc4c(Cc4cccc(F)c4)n3)nc(N)c21` (single isomer, unassigned) [Example 90B, 4-amino-2-(8-(3-fluorobenzyl)imidazo[1,2-a]pyrazin-6-yl)-5-(4-fluorophenyl)-5-methyl-5H-pyrrolo[2,3-d]pyrimidin-6(7H)-one], the EC50 is 140 nM and the “% Act.” value was 129%.

`Nc1nc(-c2cn3ccnc3c(Cc3ccc(F)cc3)n2)nc2c1C(c1ccc(Cl)cn1)(C1CC1)C(=O)N2` (single isomer, unassigned) [Example 108A, 4-amino-5-(5-chloropyridin-2-yl)-5-cyclopropyl-2-(8-(4-fluorobenzyl)imidazo[1,2-a]pyrazin-6-yl)-5H-pyrrolo[2,3-d]pyrimidin-6(7H)-one]: the EC50 was 12 nM and the “% Act.” value was found to be 121%.

Turning to `Nc1nc(-c2cn3ccnc3c(Cc3ccc(F)cc3)n2)nc2c1C(c1ccc(Cl)cn1)(C1CC1)C(=O)N2` (single isomer, unassigned) [Example 108B, 4-amino-5-(5-chloropyridin-2-yl)-5-cyclopropyl-2-(8-(4-fluorobenzyl)imidazo[1,2-a]pyrazin-6-yl)-5H-pyrrolo[2,3-d]pyrimidin-6(7H)-one], the EC50 worked out at 16 nM and the “% Act.” value was 79%.

As for `Nc1nc(-c2cn3ccnc3c(Cc3ccccc3F)n2)nc2c1C(c1ccc(Cl)cn1)(C1CC1)C(=O)N2` (single isomer, unassigned) [Example 110B, 4-amino-5-(5-chloropyridin-2-yl)-5-cyclopropyl-2-(8-(2-fluorobenzyl)imidazo[1,2-a]pyrazin-6-yl)-5H-pyrrolo[2,3-d]pyrimidin-6(7H)-one], the Emax worked out at 151% and the EC50 is 11 nM.

For `COC(=O)c1cccc(C2(C)C(=O)Nc3nc(-c4cn5ccnc5c(CCC(F)(F)C(F)(F)F)n4)nc(N)c32)c1` (single isomer, unassigned) [Example 270B, Methyl 3-(4-amino-5-methyl-6-oxo-2-(8-(3,3,4,4,4-pentafluorobutyl)imidazo[1,2-a]pyrazin-6-yl)-6,7-dihydro-5H-pyrrolo[2,3-d]pyrimidin-5-yl)benzoate], the Emax is 101% and the EC50 was 319 nM.

With `CC1(c2ccc(Cl)cc2)C(=O)Nc2nc(-c3cn4ccnc4cn3)nc(N3CC(F)(F)C3)c21` (single isomer, unassigned) [Example 277A], the Emax was 106% and the EC50 worked out at 469 nM.

As to `CC(C)c1nc(C2(C)C(=O)Nc3nc(-c4cn5ccnc5c(CCC(F)(F)C(F)(F)F)n4)nc(N)c32)no1` (single isomer, unassigned) [Example 321B, 4-amino-5-(5-isopropyl-1,2,4-oxadiazol-3-yl)-5-methyl-2-(8-(3,3,4,4,4-pentafluorobutyl)imidazo[1,2-a]pyrazin-6-yl)-5H-pyrrolo[2,3-d]pyrimidin-6(7H)-one], the Emax amounted to 126% and the EC50 was 237 nM.

For the compound `Cn1nnnc1C1(C2CC2)C(=O)Nc2nc(-c3cn4ccnc4c(CCC(F)(F)C(F)(F)F)n3)nc(N)c21` (single isomer, unassigned) [Example 325A, 4-amino-5-cyclopropyl-5-(1-methyl-1H-tetrazol-5-yl)-2-(8-(3,3,4,4,4-pentafluorobutyl)imidazo[1,2-a]pyrazin-6-yl]-5H-pyrrolo[2,3-d]pyrimidin-6(7H)-one], the Emax amounted to 83% and a half-maximal effect (EC50) was put at 1210 nM.

Consider `COc1ccc(C2(C3CC3)C(=O)Nc3nc(-c4cn5ccnc5c(CCC(F)(F)C(F)(F)F)n4)nc(N)c32)nc1` (single isomer, unassigned) [Example 337A, 4-amino-5-cyclopropyl-5-(5-methoxypyridin-2-yl)-2-(8-(3,3,4,4,4-pentafluorobutyl)imidazo[1,2-a]pyrazin-6-yl)-5H-pyrrolo[2,3-d]pyrimidin-6(7H)-one], for which the Emax came to 189% and the EC50 was determined as 486 nM.

For `Cc1ncc(C2(C3CC3)C(=O)Nc3nc(-c4cn5ccnc5c(CCC(F)(F)C(F)(F)F)n4)nc(N)c32)cn1` (single isomer, unassigned) [Example 348B, 4-amino-5-cyclopropyl-5-(2-methylpyrimidin-5-yl)-2-(8-(3,3,4,4,4-pentafluorobutyl)imidazo[1,2-a]pyrazin-6-yl)-5H-pyrrolo[2,3-d]pyrimidin-6(7H)-one], the Emax worked out at 175% and the EC50 came out at 1550 nM.

For `Nc1nc(-c2cn3ccnc3c(CCC(F)(F)C(F)(F)F)n2)nc2c1C(c1ccc(Cl)cc1)(C1CCC1)C(=O)N2` (single isomer, unassigned) [Example 350B, 4-amino-5-(4-chlorophenyl)-5-cyclobutyl-2-(8-(3,3,4,4,4-pentafluorobutyl)imidazo[1,2-a]pyrazin-6-yl)-5H-pyrrolo[2,3-d]pyrimidin-6(7H)-one], the Emax is 239% and a half-maximal effect (EC50) was put at 105 nM.

With `Nc1nc(-c2cn3ccnc3c(CCC(F)(F)F)n2)nc2c1C(c1ccc(Cl)cc1)(C1CCC1)C(=O)N2` (single isomer, unassigned) [Example 351B, 4-amino-5-(4-chlorophenyl)-5-cyclobutyl-2-(8-(3,3,3-trifluoropropyl)imidazo[1,2-a]pyrazin-6-yl)-5H-pyrrolo[2,3-d]pyrimidin-6(7H)-one], the Emax was determined as 182% and the response was half-maximal at 985 nM (EC50).

Take `CCCCc1nc(-c2nc(N)c3c(n2)NC(=O)C3(c2cnc(C)cn2)C2CC2)cn2ccnc12` (single isomer, unassigned) [Example 352B, 4-amino-2-(8-butylimidazo[1,2-a]pyrazin-6-yl)-5-cyclopropyl-5-(5-methylpyrazin-2-yl)-5H-pyrrolo[2,3-d]pyrimidin-6(7H)-one]: the Emax was 96% and the response was half-maximal at 302 nM (EC50).

As to `Cc1cnc(C2(C3CC3)C(=O)Nc3nc(-c4cn5ccnc5c(CCCC(F)(F)F)n4)nc(N)c32)cn1` (single isomer, unassigned) [Example 357B, 4-amino-5-cyclopropyl-5-(5-methylpyrazin-2-yl)-2-(8-(4,4,4-trifluorobutyl)imidazo[1,2-a]pyrazin-6-yl)-5H-pyrrolo[2,3-d]pyrimidin-6(7H)-one], the Emax came to 113% and the midpoint of the response, the EC50, lay at 680 nM.

Values taken from patent publication US9796733B2, “Imidazo-pyrazine derivatives useful as soluble guanylate cyclase activators” (Merck Sharp & Dohme Corp., priority 2014, dated 2017).
